Data as given in patent publication US20250051344A1, “BIFUNCTIONAL SELECTIVE DEGRADERS OF SMARCA2 AND THERAPEUTIC USES THEREOF” (Nurix Therapeutics, Inc., priority 2023, published 2025).

What was measured:
[1] = target: T1, SMARCA4 (Homo sapiens, UniProt P51532); assay: Cellular degradation assay, SMARCA4 (Table 1); type: cell-based
T1 construct: endogenous in cells

[2] = target: T2, SMARCA2 (Homo sapiens, UniProt P51531); assay: SMARCA2 Cellular Degradation Assay (Western blot analysis on Jess platform); type: cell-based; settings: for DC50 / Dmax: cellular degradation; for Fold Selectivity SMARCA4/2: ratio DC50 SMARCA4 / DC50 SMARCA2
T2 construct: endogenous in cells
Summary of the method: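 Readout: Jess Simple Western of tumor-extracted cell lysates, SMARCA2 area over actin area after background subtraction, shown as percentage of vehicle control.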

T2 sequence (P51531 whole entry, species assumed): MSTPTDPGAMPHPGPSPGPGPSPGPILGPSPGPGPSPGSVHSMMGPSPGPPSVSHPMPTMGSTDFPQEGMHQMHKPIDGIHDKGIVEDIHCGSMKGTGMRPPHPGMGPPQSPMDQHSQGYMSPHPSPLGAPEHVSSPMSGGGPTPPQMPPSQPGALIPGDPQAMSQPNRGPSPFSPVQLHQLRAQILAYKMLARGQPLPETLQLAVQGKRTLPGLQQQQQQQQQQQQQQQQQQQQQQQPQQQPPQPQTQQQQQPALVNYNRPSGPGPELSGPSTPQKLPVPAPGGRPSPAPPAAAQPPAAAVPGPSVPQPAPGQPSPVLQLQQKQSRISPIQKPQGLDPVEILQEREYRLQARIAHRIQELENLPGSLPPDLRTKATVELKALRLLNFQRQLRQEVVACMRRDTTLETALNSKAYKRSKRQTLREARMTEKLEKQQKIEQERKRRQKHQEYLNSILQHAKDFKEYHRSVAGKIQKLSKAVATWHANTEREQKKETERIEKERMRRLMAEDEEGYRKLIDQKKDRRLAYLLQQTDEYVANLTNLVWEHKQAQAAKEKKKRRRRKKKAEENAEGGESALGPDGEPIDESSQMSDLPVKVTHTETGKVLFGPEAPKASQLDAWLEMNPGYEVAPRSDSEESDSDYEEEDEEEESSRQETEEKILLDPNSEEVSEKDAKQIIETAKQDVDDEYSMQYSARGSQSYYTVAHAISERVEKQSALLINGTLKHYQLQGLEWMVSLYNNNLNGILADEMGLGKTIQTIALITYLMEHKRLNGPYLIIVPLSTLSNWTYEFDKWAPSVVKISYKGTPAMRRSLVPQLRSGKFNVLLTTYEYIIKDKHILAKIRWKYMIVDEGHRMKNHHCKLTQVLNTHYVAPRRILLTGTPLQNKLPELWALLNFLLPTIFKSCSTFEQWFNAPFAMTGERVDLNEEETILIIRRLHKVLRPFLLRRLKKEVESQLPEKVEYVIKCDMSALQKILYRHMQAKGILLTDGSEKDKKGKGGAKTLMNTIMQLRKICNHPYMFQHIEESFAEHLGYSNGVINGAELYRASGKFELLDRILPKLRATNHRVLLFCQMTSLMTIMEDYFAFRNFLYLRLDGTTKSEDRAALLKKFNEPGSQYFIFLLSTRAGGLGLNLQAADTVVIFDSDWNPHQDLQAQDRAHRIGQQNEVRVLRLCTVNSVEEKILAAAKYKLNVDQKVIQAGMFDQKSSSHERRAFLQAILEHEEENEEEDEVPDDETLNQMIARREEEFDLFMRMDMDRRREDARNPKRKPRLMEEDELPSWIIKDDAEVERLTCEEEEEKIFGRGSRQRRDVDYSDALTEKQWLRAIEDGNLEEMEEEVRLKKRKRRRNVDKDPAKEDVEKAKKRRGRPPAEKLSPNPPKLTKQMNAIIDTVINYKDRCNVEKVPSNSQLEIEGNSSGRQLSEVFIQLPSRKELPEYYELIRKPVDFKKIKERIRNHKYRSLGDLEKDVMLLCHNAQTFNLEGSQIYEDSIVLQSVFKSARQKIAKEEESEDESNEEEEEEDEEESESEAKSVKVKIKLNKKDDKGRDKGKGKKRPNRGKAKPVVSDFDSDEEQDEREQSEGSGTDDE
T1 sequence (P51532 whole entry, species assumed): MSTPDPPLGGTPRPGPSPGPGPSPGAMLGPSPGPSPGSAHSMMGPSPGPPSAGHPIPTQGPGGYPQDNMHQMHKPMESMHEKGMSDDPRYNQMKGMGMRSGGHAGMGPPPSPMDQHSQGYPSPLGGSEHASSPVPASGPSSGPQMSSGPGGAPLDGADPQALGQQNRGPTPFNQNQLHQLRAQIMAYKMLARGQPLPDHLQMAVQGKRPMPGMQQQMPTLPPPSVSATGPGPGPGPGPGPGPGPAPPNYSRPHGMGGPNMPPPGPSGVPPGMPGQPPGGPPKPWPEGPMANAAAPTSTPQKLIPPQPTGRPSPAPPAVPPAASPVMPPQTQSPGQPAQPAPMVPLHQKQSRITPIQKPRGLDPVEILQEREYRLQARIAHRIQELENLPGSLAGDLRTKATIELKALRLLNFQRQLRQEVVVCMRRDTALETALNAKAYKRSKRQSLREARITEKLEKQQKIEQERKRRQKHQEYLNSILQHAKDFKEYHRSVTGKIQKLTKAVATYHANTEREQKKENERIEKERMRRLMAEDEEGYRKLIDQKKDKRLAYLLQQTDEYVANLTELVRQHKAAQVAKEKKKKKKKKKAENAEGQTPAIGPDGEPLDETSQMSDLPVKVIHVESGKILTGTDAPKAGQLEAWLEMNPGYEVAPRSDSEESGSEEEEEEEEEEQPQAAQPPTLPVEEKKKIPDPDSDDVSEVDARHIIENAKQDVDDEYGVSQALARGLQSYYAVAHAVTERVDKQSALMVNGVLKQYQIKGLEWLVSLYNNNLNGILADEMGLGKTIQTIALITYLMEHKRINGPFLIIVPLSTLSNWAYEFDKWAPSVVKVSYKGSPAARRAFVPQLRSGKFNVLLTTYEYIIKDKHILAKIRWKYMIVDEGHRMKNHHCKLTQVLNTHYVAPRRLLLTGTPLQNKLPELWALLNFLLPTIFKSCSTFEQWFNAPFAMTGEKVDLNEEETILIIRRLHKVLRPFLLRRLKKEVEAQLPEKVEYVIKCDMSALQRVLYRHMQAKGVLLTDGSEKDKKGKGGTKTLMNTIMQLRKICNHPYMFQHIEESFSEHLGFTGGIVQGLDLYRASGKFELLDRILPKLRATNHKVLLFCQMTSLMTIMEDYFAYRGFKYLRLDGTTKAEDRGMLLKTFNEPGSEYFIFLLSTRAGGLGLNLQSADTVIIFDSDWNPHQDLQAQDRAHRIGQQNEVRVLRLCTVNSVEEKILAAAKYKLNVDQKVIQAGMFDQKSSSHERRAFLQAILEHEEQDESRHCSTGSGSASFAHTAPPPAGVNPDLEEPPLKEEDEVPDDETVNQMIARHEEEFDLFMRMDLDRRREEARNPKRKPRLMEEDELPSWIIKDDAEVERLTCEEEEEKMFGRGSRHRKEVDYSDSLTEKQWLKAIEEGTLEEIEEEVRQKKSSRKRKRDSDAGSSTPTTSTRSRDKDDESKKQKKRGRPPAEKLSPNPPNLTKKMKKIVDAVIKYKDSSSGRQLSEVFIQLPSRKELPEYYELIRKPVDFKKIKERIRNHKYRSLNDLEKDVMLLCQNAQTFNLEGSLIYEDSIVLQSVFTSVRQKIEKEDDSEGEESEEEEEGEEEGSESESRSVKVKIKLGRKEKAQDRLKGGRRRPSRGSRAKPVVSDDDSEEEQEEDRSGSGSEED

A Dmax [1] of 31.1%, a DC50 [2] of 8.79 nM and a Dmax [2] of 87.1% were found for `CN(C(=O)C1(c2ccc(F)cc2)CCN(c2cnnc(-c3ccccc3O)c2)CC1)C1CCN(CCC2CCN(c3ccc(C4CCC(=O)NC4=O)cc3)CC2)CC1` (racemic) [Example 134, rac-N-{1-[2-(1-{4-[(3R)-2,6-dioxopiperidin-3-yl]phenyl}piperidin-4-yl)ethyl]piperidin-4-yl}-4-(4-fluorophenyl)-1-[6-(2-hydroxyphenyl)pyridazin-4-yl]-n-methylpiperidine-4-carboxamide] in this work. The “Fold Selectivity SMARCA4/2” value [2] was 1138.
A Dmax [1] of 13.8%, a DC50 [2] of 317 nM and a Dmax [2] of 50.3% were found for `O=C1CC[C@H](c2ccc(N3CCC(CN4CCCC4C4CCN(C(=O)C5(c6ccccc6)CCN(c6cnnc(-c7ccccc7O)c6)CC5)CC4)CC3)cc2)C(=O)N1` (stereo partly drawn) [Example 40, (3R)-3-[4-(4-{[2-(1-{1-[6-(2-hydroxyphenyl)pyridazin-4-yl]-4-phenylpiperidine-4-carbonyl}piperidin-4-yl)pyrrolidin-1-yl]methyl}piperidin-1-yl)phenyl]piperidine-2,6-dione] in this work. The “Fold Selectivity SMARCA4/2” value [2] was 31.55.
A Dmax [1] of 29.4%, a DC50 [2] of 80.7 nM and a Dmax [2] of 61.5% were found for `O=C1CC[C@H](c2ccc(N3CCC(CN4CC(F)C5(C4)CN(C(=O)C4(c6ccccc6)CCN(c6cnnc(-c7ccccc7O)c6)CC4)C5)CC3)cc2)C(=O)N1` (stereo partly drawn) [Example 25, (3R)-3-(4-{4-[(8-fluoro-2-{1-[6-(2-hydroxyphenyl)pyridazin-4-yl]-4-phenylpiperidine-4-carbonyl}-2,6-diazaspiro[3.4]octan-6-yl)methyl]piperidin-1-yl}phenyl)piperidine-2,6-dione] in this work. The “Fold Selectivity SMARCA4/2” value [2] was 123.86.
With `CC1(C(=O)N2CCN(c3ccc(C4CCC(=O)NC4=O)cc3)CC2)CCN(C(=O)C2(c3ccccc3)CCN(c3cnnc(-c4ccccc4O)c3)CC2)CC1` (racemic) [Example 21, rac-(3R)-3-{4-[4-(1-{1-[6-(2-hydroxyphenyl)pyridazin-4-yl]-4-phenylpiperidine-4-carbonyl}-4-methylpiperidine-4-carbonyl)piperazin-1-yl]phenyl}piperidine-2,6-dione] the Dmax [1] was 19.3%, the Dmax [2] was 32% and the “Fold Selectivity SMARCA4/2” value [2] was 1.
A Dmax [1] of 22.5%, a DC50 [2] of 2.79 nM and a Dmax [2] of 87.7% were found for `CN(C(=O)C1(c2ccnn2C)CCN(c2cnnc(-c3ccccc3O)c2)CC1)C1CCN(CCC2CCN(c3ccc(C4CCC(=O)NC4=O)cc3)CC2)CC1` (racemic) [Example 87, rac-N-{1-[2-(1-{4-[(3r)-2,6-dioxopiperidin-3-yl]phenyl}piperidin-4-yl)ethyl]piperidin-4-yl}-1-[6-(2-hydroxyphenyl)pyridazin-4-yl]-N-methyl-4-(1-methyl-1H-pyrazol-5-yl)piperidine-4-carboxamide] in this work. The “Fold Selectivity SMARCA4/2” value [2] was 3583.
A DC50 [1] of 15.6 nM, a Dmax [1] of 81.8% and a DC50 [2] of 1.7 nM were found for `O=C1CC[C@H](c2ccc(N3CCC(CN4CCC5(CC4)CN(C(=O)C4(c6ccccc6)CCN(c6cnnc(-c7ccccc7O)c6)CC4)C5)CC3)nc2)C(=O)N1` [Example 189, (3R)-3-(6-{4-[(2-{1-[6-(2-hydroxyphenyl)pyridazin-4-yl]-4-phenylpiperidine-4-carbonyl}-2,7-diazaspiro[3.5]nonan-7-yl)methyl]piperidin-1-yl}pyridin-3-yl)piperidine-2,6-dione] in this work. The Dmax [2] was 93% and the “Fold Selectivity SMARCA4/2” value [2] was 9.
A DC50 [1] of 8.12 nM, a Dmax [1] of 82.6% and a DC50 [2] of 1.56 nM were found for `O=C1CC[C@H](n2ccc3cc(N4CCC(CN5CCC(NC(=O)C6(c7ccccc7)CCN(c7cnnc(-c8ccccc8O)c7)CC6)CC5)CC4)ccc3c2=O)C(=O)N1` [Example 157, N-{1-[(1-{2-[(3S)-2,6-dioxopiperidin-3-yl]-1-oxo-1,2-dihydroisoquinolin-6-yl}piperidin-4-yl)methyl]piperidin-4-yl}-1-[6-(2-hydroxyphenyl)pyridazin-4-yl]-4-phenylpiperidine-4-carboxamide] in this work. The Dmax [2] was 91.8% and the “Fold Selectivity SMARCA4/2” value [2] was 5.
A DC50 [1] of 34.9 nM, a Dmax [1] of 71.5% and a DC50 [2] of 6.59 nM were found for `C[C@@H](C1CCN(c2ccc([C@H]3CCC(=O)NC3=O)cn2)CC1)N1CC2(CN(C(=O)C3(c4ccccc4)CCN(c4cnnc(-c5ccccc5O)c4)CC3)C2)C1` (racemic) [Example 141, (3RS&)-3-(6-{4-[(1RS)-1-(6-{1-[6-(2-hydroxyphenyl)pyridazin-4-yl]-4-phenylpiperidine-4-carbonyl}-2,6-diazaspiro[3.3]heptan-2-yl)ethyl]piperidin-1-yl}pyridin-3-yl)piperidine-2,6-dione] in this work. For the same compound, the Dmax [2] was 87% and the “Fold Selectivity SMARCA4/2” value [2] was 5.
A DC50 [1] of 211 nM, a Dmax [1] of 57.7% and a DC50 [2] of 17.9 nM were found for `O=C1CCC(c2ccc(N3CCC(F)(CN4CCC(NC(=O)C5(c6ccccc6)CCN(c6cnnc(-c7ccccc7O)c6)CC5)CC4)CC3)cc2)C(=O)N1` (racemic) [Example 179, rac-N-{1-[(1-{4-[(3R)-2,6-dioxopiperidin-3-yl]phenyl}-4-fluoropiperidin-4-yl)methyl]piperidin-4-yl}-1-[6-(2-hydroxyphenyl)pyridazin-4-yl]-4-phenylpiperidine-4-carboxamide] in this work. The Dmax [2] was 83.4% and the “Fold Selectivity SMARCA4/2” value [2] was 12.
A DC50 [1] of 21.6 nM, a Dmax [1] of 54.5% and a DC50 [2] of 3.53 nM were found for `O=C1CCC(Nc2ccc(C3CCN(CC4CCC45CN(C(=O)C4(c6ccccc6)CCN(c6cnnc(-c7ccccc7O)c6)CC4)C5)CC3)cc2)C(=O)N1` (racemic) [Example 177, rac-(3R)-3-[(4-{1-[(2-{1-[6-(2-hydroxyphenyl)pyridazin-4-yl]-4-phenylpiperidine-4-carbonyl}-2-azaspiro[3.3]heptan-5-yl)methyl]piperidin-4-yl}phenyl)amino]piperidine-2,6-dione] in this work. The Dmax [2] was 71.5% and the “Fold Selectivity SMARCA4/2” value [2] was 6.
For `O=C1CCC(c2ccc(N3CCC(CNC4CCN(C(=O)C5(c6ccccc6)CCN(c6cnnc(-c7ccccc7O)c6)CC5)CC4)CC3)cc2)C(=O)N1` (racemic) [Example 7, rac-(3R)-3-[4-(4-{[(1-{1-[6-(2-hydroxyphenyl)pyridazin-4-yl]-4-phenylpiperidine-4-carbonyl}piperidin-4-yl)amino]methyl}piperidin-1-yl)phenyl]piperidine-2,6-dione], the Dmax [1] was 32%, the Dmax [2] was 53.1% and the “Fold Selectivity SMARCA4/2” value [2] was 1.
A DC50 [1] of 92.5 nM, a Dmax [1] of 50.2% and a DC50 [2] of 4.81 nM were found for `CC(C)c1cc(C2(C(=O)N3CC4(CN(CC5CCN(c6ccc(C7CCC(=O)NC7=O)cc6)CC5)C4)C3)CCN(c3cnnc(-c4ccccc4O)c3)CC2)no1` (racemic) [Example 92, rac-(3R)-3-(4-{4-[(6-{1-[6-(2-hydroxyphenyl)pyridazin-4-yl]-4-[5-(propan-2-yl)-1,2-oxazol-3-yl]piperidine-4-carbonyl}-2,6-diazaspiro[3.3]heptan-2-yl)methyl]piperidin-1-yl}phenyl)piperidine-2,6-dione] in this work. The Dmax [2] was 80.8% and the “Fold Selectivity SMARCA4/2” value [2] was 19.
A Dmax [1] of 32.2%, a DC50 [2] of 8.07 nM and a Dmax [2] of 81.6% were found for `COC1(C(=O)N(C)C2CCN(CCC3CCN(c4ccc(C5CCC(=O)NC5=O)c(F)c4)CC3)CC2)CCN(c2cnnc(-c3ccccc3O)c2)CC1` (racemic) [Example 71, rac-N-(1-(2-(1-(4-(2,6-dioxopiperidin-3-yl)-3-fluorophenyl)piperidin-4-yl)ethyl)piperidin-4-yl)-1-(6-(2-hydroxyphenyl)pyridazin-4-yl)-4-methoxy-n-methylpiperidine-4-carboxamide] in this work. The “Fold Selectivity SMARCA4/2” value [2] was 1239.
